Data taken from ChEMBL document CHEMBL1806431, “Imidazo[1,2-a]pyridin-3-amines as potential HIV-1 non-nucleoside reverse transcriptase inhibitors” (Bioorg Med Chem, 2011).

What was measured:
[1] = test system: Human immunodeficiency virus 1; assay: microbe, parasite or virus in culture; format: functional, organism-based; conditions: Human immunodeficiency virus 1, 3B, MAGI-CCR5, 48 h
[2] = Permeability of the compound at 100 uM after 5 hrs by PAMPA
[3] = Selectivity index, ratio of CC50 for MAGI-CCR5 cells to IC50 for HIV13B infected in human MAGI-CCR5 cells; format: functional
[4] = biological target: Human immunodeficiency virus type 1 reverse transcriptase (Human immunodeficiency virus 1, UniProt Q72547); assay: Inhibition of HIV1 reverse transcriptase assessed as residual enzyme activity at 50 uM after 1 hr by ELISA
[5] = Cytotoxicity against human MAGI-CCR5 cells after 48 hrs by MTS cell viability assay

| Compound | IC50 [1] | permeability [2] | IC50 [4] | Ratio CC50/IC50 [3] | CC50 at 48 h [5] |
| --- | --- | --- | --- | --- | --- |
| Clc1ccccc1-c1nc2ccccn2c1NC1CCCCC1 | 0.41 µM | permeable | 4.4 µM | 147 | 60.4 µM |
| Cc1ccn2c(NC3CCCCC3)c(-c3ccccc3Cl)nc2c1 | – | permeable | – | – | – |
| Cc1cccc2nc(-c3ccccc3Cl)c(NC3CCCCC3)n12 | 0.19 µM | – | 1.55 µM | 108 | 20.5 µM |
| N#Cc1cccc2nc(-c3ccccc3Cl)c(NC3CCCCC3)n12 | 0.18 µM | permeable | 3.47 µM | 868 | 156 µM |
| Clc1ccccc1-c1nc2cccc(Br)n2c1NC1CCCCC1 | 3.15 µM | – | 4.62 µM | 64 | > 200 µM |
| Cc1c(Br)ccc2nc(-c3ccccc3Cl)c(NC3CCCCC3)n12 | 73 µM | – | 18.9 µM | >3 | > 200 µM |
| Clc1ccccc1-c1nc2ccc3ccccc3n2c1NC1CCCCC1 | 0.6 µM | permeable | 7.52 µM | 243 | 146 µM |
| COCCc1ccc(OCC(O)CNC(C)C)cc1 (stereo not given) [METOPROLOL] | – | permeable | – | – | – |
| Cc1ccnc2c1NC(=O)c1cccnc1N2C1CC1 [NEVIRAPINE] | 0.09 µM | – | – | – | > 10 µM |
| CC(C)NCC(O)COc1cccc2[nH]ccc12 (stereo not given) [PINDOLOL] | – | permeable | – | – | – |

More lines, main results first:

| IC50 [1] | permeability [2] | IC50 [4] | Compound | Ratio CC50/IC50 [3] | CC50 at 48 h [5] |
| --- | --- | --- | --- | --- | --- |
| 0.64 µM | permeable | 5.39 µM | Cc1ccc2nc(-c3ccccc3Cl)c(NC3CCCCC3)n2c1 | 90 | 57.4 µM |
| < 0.63 µM | permeable | 6.6 µM | N#Cc1ccc2nc(-c3ccccc3Cl)c(NC3CCCCC3)n2c1 | >222 | 140 µM |
| 1.88 µM | – | 11.3 µM | Fc1ccc2nc(-c3ccccc3Cl)c(NC3CCCCC3)n2c1 | 85 | 160 µM |
| 0.84 µM | permeable | 14.5 µM | Clc1ccc2nc(-c3ccccc3Cl)c(NC3CCCCC3)n2c1 | >238 | > 200 µM |
| 0.24 µM | permeable | 3.74 µM | Clc1ccccc1-c1nc2cccc(Cl)n2c1NC1CCCCC1 | 633 | 152 µM |
| 2.19 µM | – | 12.2 µM | Clc1ccccc1-c1nc2ccc(Br)cn2c1NC1CCCCC1 | >91 | > 200 µM |
